Source: patent publication US11926629B1, “Pyrido[3′,4′:4,5]pyrrolo[2,3-c]isoquinoline compounds as CK2 inhibitors” (KING FAISAL UNIVERSITY, priority 2023, dated 2024)

Experiments:
H1299 (lung) = assay: In vitro cytotoxic activity (MTT) assay, H1299; format: cell-based; conditions: Homo sapiens, NCI-H1299; H1299 (lung) cells, exposed for 96 hours; read-out: IC50, 50% inhibition of cell proliferation
Procedure: (§1) Compounds 1-15 were screened for their in vitro cytotoxic activity utilizing a 3-(4,5-dimethyl-thiazol-2-yl)-2,5-diphenyltetrazolium bromide (MTT) assay against selected cancer human cell lines consisting of PC3 (prostate). HCT116 (colon), A375 (melanoma), H1299 (lung). MIAPaCa-2 (pancreas), HL60 (leukemia). MCF7 (breast), MDA-MB-231 (breast) (T. Mosmann, J. Immunol. Meth., 1983, 65, 55-63). The cells were cultured at 37° C. in RMPI1640 medium supplemented with 10% fetal bovine serum, 50 IU/mL penicillin, and 50 μg/mL streptomycin in a 5% CO2 incubator. All cells were sub-cultured 3 times/week by trypsinisation. Viable cells were seeded and allowed to adhere for 12 h before a test drug was added in 96-well plates at an initial density of 1.0×10^5 cells/mL. Tumour cell lines were separately exposed to various concentrations of the tested compounds followed by incubation at a temperature of 37° C. during 96 h inside a medium of fresh RMPI 1640. Cells were subsequently incubated at 37° C. using MTT at 0.5 mg/mL during 4 h. After removal of supernatant, formazan crystals were dissolved in isopropanol and the optical density was measured at 570 nm. CX-4945 was used as a positive control.

MCF7 (breast) = assay: In vitro cytotoxic activity (MTT) assay, MCF7; format: cell-based; conditions: Homo sapiens; MCF7 (breast) cells, exposed for 96 hours; read-out: IC50, 50% inhibition of cell proliferation
Procedure: as §1

MDA-MB-231 (breast) = assay: In vitro cytotoxic activity (MTT) assay, MDA-MB-231; format: cell-based; conditions: Homo sapiens; MDA-MB-231 (breast) cells, exposed for 96 hours; read-out: IC50, 50% inhibition of cell proliferation
Procedure: as §1

HL60 (leukemia) = assay: In vitro cytotoxic activity (MTT) assay, HL60; format: cell-based; conditions: Homo sapiens, HL-60; HL60 (leukemia) cells, exposed for 96 hours; read-out: IC50, 50% inhibition of cell proliferation
Procedure: as §1

MIAPaCa-2 (pancreas) = assay: In vitro cytotoxic activity (MTT) assay, MIAPaCa-2; format: cell-based; conditions: Homo sapiens, MIA PaCa-2; MIAPaCa-2 (pancreas) cells, exposed for 96 hours; read-out: IC50, 50% inhibition of cell proliferation
Procedure: as §1

A375 (melanoma) = assay: In vitro cytotoxic activity (MTT) assay, A375; format: cell-based; conditions: Homo sapiens, A-375; A375 (melanoma) cells, exposed for 96 hours; read-out: IC50, 50% inhibition of cell proliferation
Procedure: as §1

HCT116 (colon) = assay: In vitro cytotoxic activity (MTT) assay, HCT116; format: cell-based; conditions: Homo sapiens, HCT-116; HCT116 (colon) cells, exposed for 96 hours; read-out: IC50, 50% inhibition of cell proliferation
Procedure: as §1

[1] = biological target: T1, recombinant human CK2 (RRββ-holoenzyme) (Homo sapiens, UniProt P68400); assay: CK2 Kinase Assay; format: biochemical; conditions: final ATP concentration 15 μM, 10 min at 30° C.; read-out: IC50 protein kinase CK2 activity
T1 construct: purchased Millipore
T1 sequence (P68400 whole entry): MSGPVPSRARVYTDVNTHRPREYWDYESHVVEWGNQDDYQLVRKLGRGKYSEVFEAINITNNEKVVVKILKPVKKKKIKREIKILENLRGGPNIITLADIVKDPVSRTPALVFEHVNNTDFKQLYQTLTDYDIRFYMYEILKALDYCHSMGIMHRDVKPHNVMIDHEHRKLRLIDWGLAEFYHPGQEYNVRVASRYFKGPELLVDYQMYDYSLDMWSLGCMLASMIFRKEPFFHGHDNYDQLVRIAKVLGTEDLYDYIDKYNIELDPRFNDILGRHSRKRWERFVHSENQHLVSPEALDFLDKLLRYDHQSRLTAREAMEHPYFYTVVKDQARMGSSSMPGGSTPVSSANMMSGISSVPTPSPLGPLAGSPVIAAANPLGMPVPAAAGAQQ
T1 sequence (P67870 whole entry partner): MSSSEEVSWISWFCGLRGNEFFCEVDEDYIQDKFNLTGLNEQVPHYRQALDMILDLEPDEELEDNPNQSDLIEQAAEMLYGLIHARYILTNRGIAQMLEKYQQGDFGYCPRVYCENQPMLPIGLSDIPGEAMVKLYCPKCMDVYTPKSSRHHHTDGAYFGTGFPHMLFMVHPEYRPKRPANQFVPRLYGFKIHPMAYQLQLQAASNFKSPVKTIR
Procedure: CK2 Kinase Assay was conducted using the protocol as described in Pierre F. et al; J. Med. Chem. 2011, 54, 635-654. The tested compounds in aqueous solution were added at a volume of 10 μL to a reaction mixture comprising 10 μL of assay dilution buffer (ADB; 20 mM MOPS, pH 7.2, 25 mM β-glycerol phosphate, 5 mM EGTA, 1 mM sodium orthovanadate, and 1 mM dithiothreitol), 10 μL of substrate peptide (RRRDDDSDDD, dissolved in ADB at a concentration of 1 mM), 10 μL of recombinant human CK2 (RRββ-holoenzyme, 25 ng dissolved in ADB; Millipore). Reactions were initiated by the addition of 10 μL of ATP solution (90% 75 mMMgCl2, 75 μM ATP (final ATP concentration:15 μM) dissolved in ADB; 10% [γ-33P] ATP (stock 1 mCi/100 μL; 3000 Ci/mmol (Perkin-Elmer) and maintained for 10 min at 30° C. The reactions were quenched with 100 μL of 0.75% phosphoric acid and then transferred to and filtered through a phosphor cellulose filter plate (Millipore). After washing each well five times with 0.75% phosphoric acid, the plate was dried under vacuum for 5 min and, following the addition of 15 μL of scintillation fluid to each well, the residual radioactivity was measured using a Wallac luminescence counter. The IC50 values were derived from eight concentrations of test inhibitors.

PC3 (prostate) = assay: In vitro cytotoxic activity (MTT) assay, PC3; format: cell-based; conditions: Homo sapiens, Prostate cell; PC3 (prostate) cells, exposed for 96 hours; read-out: IC50, 50% inhibition of cell proliferation
Procedure: as §1

IC50 [1]: 86 nM
Compound: O=C(O)c1ccc2c(c1)c(Nc1cccc(Cl)c1)nc1[nH]c3ccncc3c12 [Compound 1, 5-((3-chlorophenyl)amino)-7H-pyrido[3′,4′:4,5]pyrrolo[2,3-c]isoquinoline-3-carboxylic acid]
IC50 (H1299 (lung)): 900 nM
IC50 (MCF7 (breast)): 3600 nM
IC50 (MDA-MB-231 (breast)): 4400 nM
IC50 (HL60 (leukemia)): 4300 nM
IC50 (MIAPaCa-2 (pancreas)): 1200 nM
IC50 (A375 (melanoma)): 3300 nM
IC50 (HCT116 (colon)): 2000 nM
IC50 (PC3 (prostate)): 1100 nM
